pIC50: −log10 of the molar value. Active and inactive are the calls of the source. No cut-off for these calls is given here.
Target: Acetolactate synthase (Nicotiana tabacum, UniProt C0L093)
Test: Inhibition of wild type Nicotiana tabacum (tobacco) S4-Hra GST-tagged acetolactate synthase mutant expressed in Escherichia coli by modified Westerfeld method

| Structure (SMILES) | pIC50 |
| --- | --- |
| Cc1ccn2nc(S(=O)(=O)Nc3c(F)cccc3F)nc2n1 [FLUMETSULAM] | 6.03 |
| Cc1ccn2nc(S(=O)(=O)Nc3c(F)ccc4cccnc34)nc2n1 | 4.78 |
| Cc1cc(C)n2nc(S(=O)(=O)Nc3c(F)ccc4cccnc34)nc2n1 | 4.83 |

Target: T1, Acetolactate synthase (Nicotiana tabacum) (UniProt C0L093)
T1 sequence (whole entry): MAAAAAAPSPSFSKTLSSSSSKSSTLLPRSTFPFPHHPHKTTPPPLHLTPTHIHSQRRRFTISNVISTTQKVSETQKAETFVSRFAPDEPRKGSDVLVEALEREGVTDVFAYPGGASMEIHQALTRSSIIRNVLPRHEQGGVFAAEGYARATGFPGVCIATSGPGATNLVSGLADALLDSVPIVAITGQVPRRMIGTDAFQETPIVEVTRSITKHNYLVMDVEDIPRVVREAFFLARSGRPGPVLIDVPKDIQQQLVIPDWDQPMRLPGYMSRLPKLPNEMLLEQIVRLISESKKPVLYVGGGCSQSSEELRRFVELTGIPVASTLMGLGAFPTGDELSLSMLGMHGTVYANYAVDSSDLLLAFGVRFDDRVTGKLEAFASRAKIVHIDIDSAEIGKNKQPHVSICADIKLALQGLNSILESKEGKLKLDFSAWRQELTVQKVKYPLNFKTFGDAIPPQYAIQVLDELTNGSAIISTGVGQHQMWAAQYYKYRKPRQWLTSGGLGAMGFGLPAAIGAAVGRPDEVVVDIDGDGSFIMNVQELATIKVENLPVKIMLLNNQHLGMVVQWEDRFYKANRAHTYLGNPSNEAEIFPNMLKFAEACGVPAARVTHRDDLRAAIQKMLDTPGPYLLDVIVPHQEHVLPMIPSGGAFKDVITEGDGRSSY
Test: Inhibition of wild type Nicotiana tabacum (tobacco) GST-tagged acetolactate synthase expressed in Escherichia coli at 1 mM by modified Westerfeld method

| Structure (SMILES) | inhibition |
| --- | --- |
| Cc1cc(C)n2nc(S(=O)(=O)Nc3nccc4ccccc34)nc2n1 | inactive |
| Cc1ccn2nc(S(=O)(=O)Nc3cccc4ncccc34)nc2n1 | inactive |
| Cc1ccn2nc(S(=O)(=O)Nc3nccc4ccccc34)nc2n1 | inactive |
| Cc1cc(C)n2nc(S(=O)(=O)Nc3cccc4cnccc34)nc2n1 | inactive |
| Cc1ccn2nc(S(=O)(=O)Nc3cccc4cnccc34)nc2n1 | inactive |
| Cc1cc(C)n2nc(S(=O)(=O)Nc3cccc4ncccc34)nc2n1 | inactive |

Target: T2, Acetolactate synthase (Nicotiana tabacum, UniProt C0L093)
T2 sequence (C0L093 whole entry): T1 sequence (whole entry)
Test: Inhibition of wild type Nicotiana tabacum (tobacco) GST-tagged acetolactate synthase expressed in Escherichia coli by modified Westerfeld method

| Structure (SMILES) | pIC50 |
| --- | --- |
| Cc1cc(C)n2nc(S(=O)(=O)Nc3c(Br)ccc4cccnc34)nc2n1 | 8.06 |
| Cc1ccn2nc(S(=O)(=O)Nc3c(Cl)ccc4cccnc34)nc2n1 | 7.43 |
| Cc1ccn2nc(S(=O)(=O)Nc3c(F)cccc3F)nc2n1 [FLUMETSULAM] | 7.50 |
| Cc1cc(C)n2nc(S(=O)(=O)Nc3cccc4cccnc34)nc2n1 | 7.49 |
| Cc1ccn2nc(S(=O)(=O)Nc3c(F)ccc4cccnc34)nc2n1 | 7.77 |
| Cc1cc(C)n2nc(S(=O)(=O)Nc3c(F)ccc4cccnc34)nc2n1 | 8.11 |
| Cc1ccn2nc(S(=O)(=O)Nc3c(C#N)ccc4cccnc34)nc2n1 | 7.19 |
| Cc1ccn2nc(S(=O)(=O)Nc3c(Br)ccc4cccnc34)nc2n1 | 7.72 |
| Cc1cc(C)n2nc(S(=O)(=O)Nc3c(Cl)ccc4cccnc34)nc2n1 | 8.03 |
